ChEMBL document CHEMBL5137068, “Discovery of Hexahydrofuro[3,2-b]furans as New Kinase-Selective and Orally Bioavailable JAK3 Inhibitors for the Treatment of Leukemia Harboring a JAK3 Activating Mutant” (J Med Chem, 2022)
The source made the active and inactive calls. The rule behind the calls is not given here.

Assays:
[1] = target: Signal transducer and activator of transcription 3 (Homo sapiens) (UniProt P40763); experiment: Inhibition of STAT3 activation in human U-937 cells assessed as decrease in P-STAT3 incubated for 0 to 24 hrs by Western blot analysis; format: cell-based; conditions: dose 200.0 µM, time 0-24 hrs, DDE = dose-dependent effect
Chain of Signal transducer and activator of transcription 3 (Homo sapiens) (P40763 whole entry): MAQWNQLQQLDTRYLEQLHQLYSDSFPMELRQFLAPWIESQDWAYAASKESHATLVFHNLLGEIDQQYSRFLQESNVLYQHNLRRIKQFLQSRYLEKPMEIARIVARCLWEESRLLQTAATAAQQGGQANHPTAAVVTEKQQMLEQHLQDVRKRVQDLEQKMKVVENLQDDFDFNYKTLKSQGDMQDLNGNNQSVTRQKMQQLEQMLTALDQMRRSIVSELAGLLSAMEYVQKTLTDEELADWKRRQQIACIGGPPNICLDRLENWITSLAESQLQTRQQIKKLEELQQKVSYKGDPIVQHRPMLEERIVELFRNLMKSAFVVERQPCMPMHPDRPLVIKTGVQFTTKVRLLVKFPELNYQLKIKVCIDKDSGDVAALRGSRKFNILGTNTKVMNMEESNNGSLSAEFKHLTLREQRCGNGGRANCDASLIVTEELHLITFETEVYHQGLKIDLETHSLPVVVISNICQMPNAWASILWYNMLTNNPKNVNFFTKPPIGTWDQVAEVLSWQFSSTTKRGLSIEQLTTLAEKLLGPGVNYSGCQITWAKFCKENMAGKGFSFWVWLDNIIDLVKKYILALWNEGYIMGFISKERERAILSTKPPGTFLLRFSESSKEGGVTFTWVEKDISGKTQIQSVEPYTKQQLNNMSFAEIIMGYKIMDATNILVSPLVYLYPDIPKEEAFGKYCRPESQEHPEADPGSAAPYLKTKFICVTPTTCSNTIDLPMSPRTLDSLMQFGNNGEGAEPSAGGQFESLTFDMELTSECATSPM

[2] = tested on: U-937; experiment: Induction of cell cycle arrest in human U-937 cells assessed as accumulation at S phase at 33 nM measured after 24 hrs by propidium iodide staining based flow cytometric analysis (reference value: 15.35%); format: functional
[3] = Half life in 12 hr fasted SPF Sprague-Dawley rat at 5 mg/kg, iv upon 2 hrs fasting post-administration measured upto 24 hrs; format: ADME, organism-based; conditions: in vivo
[4] = target: Receptor-type tyrosine-protein kinase FLT3 (Homo sapiens, UniProt P36888); experiment: Inhibition of human FLT3
Chain of Receptor-type tyrosine-protein kinase FLT3 (P36888 whole entry): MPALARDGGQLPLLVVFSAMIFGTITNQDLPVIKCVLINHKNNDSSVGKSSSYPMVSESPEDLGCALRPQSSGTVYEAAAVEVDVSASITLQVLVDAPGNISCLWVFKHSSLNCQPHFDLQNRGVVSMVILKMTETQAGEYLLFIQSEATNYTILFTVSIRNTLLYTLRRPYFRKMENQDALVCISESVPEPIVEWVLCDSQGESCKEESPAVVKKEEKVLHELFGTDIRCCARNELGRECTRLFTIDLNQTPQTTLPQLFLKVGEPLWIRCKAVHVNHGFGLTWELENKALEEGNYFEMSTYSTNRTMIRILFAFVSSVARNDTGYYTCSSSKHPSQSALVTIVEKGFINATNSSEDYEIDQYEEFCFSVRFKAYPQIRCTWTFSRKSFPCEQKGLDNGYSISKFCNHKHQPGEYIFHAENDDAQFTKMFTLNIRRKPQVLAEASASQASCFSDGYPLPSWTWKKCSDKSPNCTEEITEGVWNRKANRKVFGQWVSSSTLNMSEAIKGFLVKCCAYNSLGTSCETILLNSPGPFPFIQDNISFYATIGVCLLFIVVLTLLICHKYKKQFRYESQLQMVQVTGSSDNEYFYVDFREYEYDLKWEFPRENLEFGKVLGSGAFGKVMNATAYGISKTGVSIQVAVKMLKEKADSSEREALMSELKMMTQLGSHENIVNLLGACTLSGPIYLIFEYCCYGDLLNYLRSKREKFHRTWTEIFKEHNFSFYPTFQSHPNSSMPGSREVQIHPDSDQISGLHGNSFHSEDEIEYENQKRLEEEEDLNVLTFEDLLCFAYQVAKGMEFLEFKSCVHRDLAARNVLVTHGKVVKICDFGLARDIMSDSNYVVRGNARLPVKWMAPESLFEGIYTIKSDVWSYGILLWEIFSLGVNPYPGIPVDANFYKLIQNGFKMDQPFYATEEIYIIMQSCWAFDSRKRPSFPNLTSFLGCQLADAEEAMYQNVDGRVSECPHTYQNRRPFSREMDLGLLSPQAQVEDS

[5] = target: T1, Tyrosine-protein kinase JAK3 (Homo sapiens, UniProt P52333); experiment: Inhibition of human JAK3
T1 sequence (P52333 whole entry): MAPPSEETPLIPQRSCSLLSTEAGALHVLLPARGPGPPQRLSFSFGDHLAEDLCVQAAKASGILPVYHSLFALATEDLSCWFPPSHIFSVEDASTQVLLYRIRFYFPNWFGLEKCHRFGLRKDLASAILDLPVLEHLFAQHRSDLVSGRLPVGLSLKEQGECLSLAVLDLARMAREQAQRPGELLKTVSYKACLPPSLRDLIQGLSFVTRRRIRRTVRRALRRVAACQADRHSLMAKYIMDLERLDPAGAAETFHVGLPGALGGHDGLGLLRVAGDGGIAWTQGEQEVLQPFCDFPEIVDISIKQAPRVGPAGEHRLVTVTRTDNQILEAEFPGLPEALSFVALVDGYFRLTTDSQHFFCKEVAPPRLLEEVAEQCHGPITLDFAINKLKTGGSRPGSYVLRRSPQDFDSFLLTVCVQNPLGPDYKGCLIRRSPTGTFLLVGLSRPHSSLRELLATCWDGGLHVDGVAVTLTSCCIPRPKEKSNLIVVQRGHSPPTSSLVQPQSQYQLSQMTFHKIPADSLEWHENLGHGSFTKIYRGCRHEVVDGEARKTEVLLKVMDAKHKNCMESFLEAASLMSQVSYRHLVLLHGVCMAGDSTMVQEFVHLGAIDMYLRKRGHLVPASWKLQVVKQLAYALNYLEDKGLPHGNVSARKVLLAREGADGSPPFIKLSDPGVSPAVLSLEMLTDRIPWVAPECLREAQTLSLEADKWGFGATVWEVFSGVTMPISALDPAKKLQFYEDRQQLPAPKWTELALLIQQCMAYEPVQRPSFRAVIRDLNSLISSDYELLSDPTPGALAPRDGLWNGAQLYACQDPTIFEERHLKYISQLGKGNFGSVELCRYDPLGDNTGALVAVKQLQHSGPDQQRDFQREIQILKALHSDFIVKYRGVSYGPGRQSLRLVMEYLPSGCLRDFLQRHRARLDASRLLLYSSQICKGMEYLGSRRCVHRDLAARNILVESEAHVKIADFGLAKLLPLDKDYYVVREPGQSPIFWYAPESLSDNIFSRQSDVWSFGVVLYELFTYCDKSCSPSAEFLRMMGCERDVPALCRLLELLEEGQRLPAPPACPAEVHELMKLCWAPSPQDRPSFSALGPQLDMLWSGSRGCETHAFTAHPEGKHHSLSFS

[6] = target: T2, Tyrosine-protein kinase JAK3 (Homo sapiens) (UniProt P52333); experiment: Inhibition of JAK3 activation in human U-937 cells assessed as decrease in P-STAT5 at 100 uM by Western blot analysis; format: cell-based; conditions: time 0-24 hrs, TDE = time-dependent effect
T2 sequence (whole entry): T1 sequence (P52333 whole entry)

[7] = target: Cyclin-Y/Cyclin-dependent kinase 16 (Homo sapiens) (UniProt Q00536+Q8ND76); experiment: Inhibition of human CDK16/cyclin-Y at 0.5 uM relative to control; format: protein-complex assay
[8] = tested on: U-937; experiment: Induction of cell cycle arrest in human U-937 cells assessed as accumulation at G2/M phase at 100 nM measured after 24 hrs by propidium iodide staining based flow cytometric analysis (reference value: 21.41%); format: functional
[9] = Toxicity in CB17-SCID mouse xenografted with human U-937 cells assessed as body weight loss at 12.5 to 50 mg/kg, po twice daily for 10 days; format: organism-based; conditions: in vivo, 240 h, dose 12.5-50 mg/kg, time 10 day
[10] = tested on: U-937; experiment: Induction of cell cycle arrest in human U-937 cells assessed as accumulation at G2/M phase at 300 nM measured after 24 hrs by propidium iodide staining based flow cytometric analysis (reference value: 21.41%); format: functional
[11] = tested on: U-937; experiment: Induction of cell cycle arrest in human U-937 cells assessed as accumulation at G2/M phase at 33 nM measured after 24 hrs by propidium iodide staining based flow cytometric analysis (reference value: 21.41%); format: functional
[12] = tested on: U-937; experiment: Induction of cell cycle arrest in human U-937 cells assessed as accumulation at G0/G1 phase at 3.7 nM measured after 24 hrs by propidium iodide staining based flow cytometric analysis (reference value: 62.95%); format: functional
[13] = target: Receptor tyrosine-protein kinase erbB-2 (Homo sapiens) (UniProt P04626); experiment: Inhibition of HER2 (unknown origin) at 0.5 uM relative to control
Chain of Receptor tyrosine-protein kinase erbB-2 (Homo sapiens) (P04626 whole entry): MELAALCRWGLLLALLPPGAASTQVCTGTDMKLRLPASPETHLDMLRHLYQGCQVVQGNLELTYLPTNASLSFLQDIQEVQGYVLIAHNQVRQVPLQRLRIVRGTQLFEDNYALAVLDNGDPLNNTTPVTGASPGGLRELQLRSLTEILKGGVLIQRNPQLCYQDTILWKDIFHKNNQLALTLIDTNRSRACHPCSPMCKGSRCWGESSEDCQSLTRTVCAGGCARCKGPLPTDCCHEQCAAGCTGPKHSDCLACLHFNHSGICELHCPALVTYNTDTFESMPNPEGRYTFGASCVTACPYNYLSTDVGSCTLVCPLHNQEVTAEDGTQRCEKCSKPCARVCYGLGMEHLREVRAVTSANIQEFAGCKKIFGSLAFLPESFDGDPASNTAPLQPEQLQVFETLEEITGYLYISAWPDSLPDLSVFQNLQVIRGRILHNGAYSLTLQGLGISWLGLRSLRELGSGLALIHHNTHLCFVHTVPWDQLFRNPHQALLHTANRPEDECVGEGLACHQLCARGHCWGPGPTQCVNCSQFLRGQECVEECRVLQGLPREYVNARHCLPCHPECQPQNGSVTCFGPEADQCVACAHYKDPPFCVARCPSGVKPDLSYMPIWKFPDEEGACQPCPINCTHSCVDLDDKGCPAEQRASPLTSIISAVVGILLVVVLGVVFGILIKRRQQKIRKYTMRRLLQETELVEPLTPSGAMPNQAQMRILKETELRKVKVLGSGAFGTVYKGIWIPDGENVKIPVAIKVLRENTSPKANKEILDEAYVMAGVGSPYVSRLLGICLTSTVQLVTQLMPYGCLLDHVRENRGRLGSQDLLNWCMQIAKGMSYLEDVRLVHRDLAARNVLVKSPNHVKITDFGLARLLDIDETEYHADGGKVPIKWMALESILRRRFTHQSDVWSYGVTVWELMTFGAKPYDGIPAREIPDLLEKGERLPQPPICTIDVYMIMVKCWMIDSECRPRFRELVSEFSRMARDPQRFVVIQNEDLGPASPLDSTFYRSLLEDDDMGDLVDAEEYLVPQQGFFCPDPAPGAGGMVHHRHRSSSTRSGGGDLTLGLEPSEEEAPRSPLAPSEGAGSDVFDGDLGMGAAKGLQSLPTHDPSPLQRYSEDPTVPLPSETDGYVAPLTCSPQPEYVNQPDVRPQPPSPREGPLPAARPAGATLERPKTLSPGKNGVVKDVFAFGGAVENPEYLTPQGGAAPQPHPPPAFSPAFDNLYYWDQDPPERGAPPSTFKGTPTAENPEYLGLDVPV

[14] = tested on: U-937; experiment: Induction of cell cycle arrest in human U-937 cells assessed as accumulation at G2/M phase at 11 nM measured after 24 hrs by propidium iodide staining based flow cytometric analysis (reference value: 21.41%); format: functional
[15] = Cmax in 12 hr fasted SPF Sprague-Dawley rat at 5 mg/kg, iv upon 2 hrs fasting post-administration measured upto 24 hrs; format: ADME, organism-based; parameters: dose 5 mg/kg, time < 24 hrs, route iv; conditions: in vivo
[16] = target: T2, Tyrosine-protein kinase JAK3 (Homo sapiens); experiment: Irreversible inhibition of JAK3 in human U-937 cells assessed as decrease in P-JAK3 phosphorylation at 200 uM pretreated for 8 hrs followed by compound washout by immunoblotting analysis; format: cell-based
[17] = target: [Pyruvate dehydrogenase (acetyl-transferring)] kinase isozyme 1, mitochondrial (Homo sapiens) (UniProt Q15118); experiment: Inhibition of PDK1 (unknown origin) at 0.5 uM assessed as competition rate relative to control
[18] = tested on: U-937; experiment: Induction of cell cycle arrest in human U-937 cells assessed as accumulation at S phase at 3.7 nM measured after 24 hrs by propidium iodide staining based flow cytometric analysis (reference value: 15.35%); format: functional
[19] = target: Receptor tyrosine-protein kinase erbB-2 (Homo sapiens) (UniProt P04626); experiment: Inhibition of HER2 (unknown origin) at 0.5 uM assessed as competition rate relative to control
[20] = target: Tyrosine-protein kinase JAK1 (Homo sapiens, UniProt P23458); experiment: Inhibition of human JAK1
Chain of Tyrosine-protein kinase JAK1 (P23458 whole entry): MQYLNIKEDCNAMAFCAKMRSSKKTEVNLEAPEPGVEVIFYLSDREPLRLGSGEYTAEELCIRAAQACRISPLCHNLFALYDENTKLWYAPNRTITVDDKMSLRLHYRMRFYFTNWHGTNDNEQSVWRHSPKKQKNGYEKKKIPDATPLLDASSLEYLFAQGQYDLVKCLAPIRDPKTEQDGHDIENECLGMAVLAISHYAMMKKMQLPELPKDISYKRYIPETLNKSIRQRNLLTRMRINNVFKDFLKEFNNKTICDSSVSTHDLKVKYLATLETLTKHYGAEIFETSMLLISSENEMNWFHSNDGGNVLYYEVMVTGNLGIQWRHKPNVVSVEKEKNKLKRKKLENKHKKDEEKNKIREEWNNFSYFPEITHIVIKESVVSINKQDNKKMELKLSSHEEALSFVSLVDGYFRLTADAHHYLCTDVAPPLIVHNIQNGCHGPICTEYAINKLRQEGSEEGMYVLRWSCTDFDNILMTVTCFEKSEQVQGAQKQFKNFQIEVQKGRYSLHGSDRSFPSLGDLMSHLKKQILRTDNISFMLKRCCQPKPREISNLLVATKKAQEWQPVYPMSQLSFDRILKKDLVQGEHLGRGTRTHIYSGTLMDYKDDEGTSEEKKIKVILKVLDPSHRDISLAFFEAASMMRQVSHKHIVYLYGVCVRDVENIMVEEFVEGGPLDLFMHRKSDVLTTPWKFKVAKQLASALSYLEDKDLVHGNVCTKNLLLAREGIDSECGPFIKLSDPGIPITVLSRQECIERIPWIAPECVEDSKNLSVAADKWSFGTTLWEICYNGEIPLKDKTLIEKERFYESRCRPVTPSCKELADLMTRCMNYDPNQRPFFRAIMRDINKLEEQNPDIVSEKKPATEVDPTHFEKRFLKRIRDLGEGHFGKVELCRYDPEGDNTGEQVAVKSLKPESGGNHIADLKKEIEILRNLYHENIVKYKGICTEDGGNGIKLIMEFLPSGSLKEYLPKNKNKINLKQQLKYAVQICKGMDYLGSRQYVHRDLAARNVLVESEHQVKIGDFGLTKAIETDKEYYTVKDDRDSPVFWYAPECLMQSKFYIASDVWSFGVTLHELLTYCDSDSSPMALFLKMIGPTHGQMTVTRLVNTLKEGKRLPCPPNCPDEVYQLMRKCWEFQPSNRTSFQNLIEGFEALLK

[21] = tested on: U-937; experiment: Induction of cell cycle arrest in human U-937 cells assessed as accumulation at S phase at 100 nM measured after 24 hrs by propidium iodide staining based flow cytometric analysis (reference value: 15.35%); format: functional
[22] = tested on: BaF3; experiment: cells; conditions: Mus musculus, BaF3, 72 h
Description: Antiproliferative activity against mouse BaF3 parent cell measured after 72 hrs by CCK-8 assay

[23] = target: Tyrosine-protein kinase JAK2 (Homo sapiens, UniProt O60674); experiment: Inhibition of human JAK2 at 0.5 uM relative to control
[24] = Cmax in 12 hr fasted SPF Sprague-Dawley rat at 15 mg/kg, po upon 2 hrs fasting post-administration measured upto 24 hrs; format: ADME, organism-based; parameters: time < 24 hrs, dose 15 mg/kg, route po; conditions: in vivo

inhibition [1]: Dde
half-life [3]: 54.6 min
IC50 [4]: 132 nM
IC50 [5]: 8 nM
inhibition [6]: Tde
inhibition [7]: 30%
inhibition [13]: 115%
Cmax [15]: 911 ng/mL
inhibition [16]: Active
inhibition [17]: 40%
inhibition [19]: 40%
IC50 [20]: 4730 nM
IC50 [22]: 165 nM
inhibition [23]: 98%
Cmax [24]: 238 ng/mL
Compound: C=CC(=O)Nc1cc(Nc2ncc(Cl)c(O[C@@H]3CO[C@H]4[C@@H]3OC[C@H]4OC)n2)ccc1N(C)CCN(C)C
Activity [2]: 13.62%
Activity [8]: 17.86%
Activity [9]: Non-Toxic
Activity [10]: 15.33%
Activity [11]: 21.31%
Activity [12]: 61.57%
Activity [14]: 21.98%
Activity [18]: 15.23%
Activity [21]: 9.85%
